How the values were obtained:
Assay in all cases: Post-emergence efficacy, glasshouse spray test
Format in all cases: in vivo
[1] = tested on: Eleusine indica (ELEIN); settings: Eleusine indica, post-emergence, 312 h; Application Rate 500 g/Ha; evaluated after 13 days; read-out: Control of weed species after post-emergence application, ELEIN (100=total damage to plant; 0=no damage to plant)
Summary of the method: (§1)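 Spray solution: compound dissolved in acetone and IF50 emulsifier/solvent mix to 50 g/l stock, then diluted to test concentration in 0.25% or 1% sodium lauryl ether sulphate + 1% ammonium sulphate. Applied post-emergence to 14-day plants; injury scored 0–100 after 13 days.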

[2] = tested on: Ipomoea hederacea (IPOHE); settings: Ipomoea hederacea, post-emergence, 312 h; Application Rate 500 g/Ha; evaluated after 13 days; read-out: Control of weed species after post-emergence application, IPOHE (100=total damage to plant; 0=no damage to plant)
Summary of the method: as §1

[3] = tested on: Chenopodium album (CHEAL); settings: Chenopodium album, post-emergence, 312 h; Application Rate 500 g/Ha; evaluated after 13 days; read-out: Control of weed species after post-emergence application, CHEAL (100=total damage to plant; 0=no damage to plant)
Summary of the method: as §1

[4] = tested on: Echinochloa crus-galli (ECHCG); settings: Echinochloa crus-galli, post-emergence, 312 h; Application Rate 500 g/Ha; evaluated after 13 days; read-out: Control of weed species after post-emergence application, ECHCG (100=total damage to plant; 0=no damage to plant)
Summary of the method: as §1

[5] = tested on: Euphorbia heterophylla (EPHHL); settings: Euphorbia heterophylla, post-emergence, 312 h; Application Rate 500 g/Ha; evaluated after 13 days; read-out: Control of weed species after post-emergence application, EPHHL (100=total damage to plant; 0=no damage to plant)
Summary of the method: as §1

[6] = tested on: Digitaria sanguinalis (DIGSA); settings: Digitaria sanguinalis, post-emergence, 312 h; Application Rate 500 g/Ha; evaluated after 13 days; read-out: Control of weed species after post-emergence application, DIGSA (100=total damage to plant; 0=no damage to plant)
Summary of the method: as §1

[7] = tested on: Lolium perenne (LOLPE); settings: Lolium perenne, post-emergence, 312 h; Application Rate 500 g/Ha; evaluated after 13 days; read-out: Control of weed species after post-emergence application, LOLPE (100=total damage to plant; 0=no damage to plant)
Summary of the method: as §1

[8] = tested on: Setaia fabei (SETFA); settings: Setaria faberi, post-emergence, 312 h; Application Rate 500 g/Ha; evaluated after 13 days; read-out: Control of weed species after post-emergence application, SETFA (100=total damage to plant; 0=no damage to plant)
Summary of the method: as §1

[9] = tested on: Amaranthus palmeri (AMAPA); settings: Amaranthus palmeri, post-emergence, 312 h; Application Rate 500 g/Ha; evaluated after 13 days; read-out: Control of weed species after post-emergence application, AMAPA (100=total damage to plant; 0=no damage to plant)
Summary of the method: as §1

Cn1nc(-c2cc[n+](CCS(=O)(=O)[O-])nc2)cc1C(F)(F)F [Compound A29] gave a pest or weed control at 500 g/ha [1] of 30%, a pest or weed control at 500 g/ha [2] of 20% and a pest or weed control at 500 g/ha [3] of 50%. The pest or weed control at 500 g/ha [4] was 20%, the pest or weed control at 500 g/ha [5] was 20% and the pest or weed control at 500 g/ha [6] was 30%. The pest or weed control at 500 g/ha [7] was 20%, the pest or weed control at 500 g/ha [8] was 20% and the pest or weed control at 500 g/ha [9] was 20%.
Cn1nc(C(F)(F)F)cc1-c1cc[n+](CCS(=O)(=O)[O-])nc1 [Compound A30] gave a pest or weed control at 500 g/ha [1] of 40%, a pest or weed control at 500 g/ha [2] of 20% and a pest or weed control at 500 g/ha [3] of 40%. The pest or weed control at 500 g/ha [4] was 20%, the pest or weed control at 500 g/ha [5] was 40% and the pest or weed control at 500 g/ha [6] was 30%. The pest or weed control at 500 g/ha [7] was 50%, the pest or weed control at 500 g/ha [8] was 40% and the pest or weed control at 500 g/ha [9] was 80%.
Cn1ccnc1-c1cc[n+](CCC(=O)O)nc1 [Compound A31, 3-[4-(1-methylimidazol-2-yl)pyridazin-1-ium-1-yl]propanoic acid; 2,2,2-trifluoroacetate] gave a pest or weed control at 500 g/ha [1] of 50%, a pest or weed control at 500 g/ha [2] of 10% and a pest or weed control at 500 g/ha [3] of 20%. For the same molecule, the pest or weed control at 500 g/ha [4] was 40%, the pest or weed control at 500 g/ha [5] was 30% and the pest or weed control at 500 g/ha [6] was 50%. For the same molecule, the pest or weed control at 500 g/ha [7] was 20%, the pest or weed control at 500 g/ha [8] was 60% and the pest or weed control at 500 g/ha [9] was 30%.
O=C(O)CC[n+]1ccc(-c2ncco2)cn1 [Compound A32] showed a pest or weed control at 500 g/ha [1] of 90%, a pest or weed control at 500 g/ha [2] of 60% and a pest or weed control at 500 g/ha [3] of 90%. For the same molecule, the pest or weed control at 500 g/ha [4] was 90%, the pest or weed control at 500 g/ha [5] was 80% and the pest or weed control at 500 g/ha [6] was 90%. The pest or weed control at 500 g/ha [7] was 40%, the pest or weed control at 500 g/ha [8] was 80% and the pest or weed control at 500 g/ha [9] was 80%.
In the case of COc1cc(-c2cc[n+](CCC(=O)O)nc2)sn1 [Compound A33], the pest or weed control at 500 g/ha [1] is reported as 50%, the pest or weed control at 500 g/ha [2] is reported as 10% and the pest or weed control at 500 g/ha [3] is reported as 70%. The pest or weed control at 500 g/ha [4] was 20%, the pest or weed control at 500 g/ha [5] was 80% and the pest or weed control at 500 g/ha [6] was 70%. The pest or weed control at 500 g/ha [7] was 30%, the pest or weed control at 500 g/ha [8] was 30% and the pest or weed control at 500 g/ha [9] was 100%.
With COc1cc(-c2cc[n+](CCS(=O)(=O)[O-])nc2)sn1 [Compound A34] the pest or weed control at 500 g/ha [1] was 20%, the pest or weed control at 500 g/ha [2] was 20% and the pest or weed control at 500 g/ha [3] was 20%. For the same molecule, the pest or weed control at 500 g/ha [4] was 50%, the pest or weed control at 500 g/ha [5] was 30% and the pest or weed control at 500 g/ha [6] was 30%. For the same molecule, the pest or weed control at 500 g/ha [7] was 20%, the pest or weed control at 500 g/ha [8] was 40% and the pest or weed control at 500 g/ha [9] was 60%.
For Cc1cc(-c2cc[n+](CCS(=O)(=O)[O-])nc2)sn1 [Compound A35], the pest or weed control at 500 g/ha [1] was 70%, the pest or weed control at 500 g/ha [2] was 50% and the pest or weed control at 500 g/ha [3] was 100%. The pest or weed control at 500 g/ha [4] was 50%, the pest or weed control at 500 g/ha [5] was 90% and the pest or weed control at 500 g/ha [6] was 50%. The pest or weed control at 500 g/ha [7] was 70%, the pest or weed control at 500 g/ha [8] was 60% and the pest or weed control at 500 g/ha [9] was 100%.
In the case of O=S(=O)([O-])CC[n+]1ccc(-c2cccs2)cn1 [Compound A36], the pest or weed control at 500 g/ha [1] is reported as 20%, the pest or weed control at 500 g/ha [2] is reported as 30% and the pest or weed control at 500 g/ha [3] is reported as 60%. For the same molecule, the pest or weed control at 500 g/ha [4] was 0%, the pest or weed control at 500 g/ha [5] was 30% and the pest or weed control at 500 g/ha [6] was 10%. It also gave a pest or weed control at 500 g/ha [7] of 20%, a pest or weed control at 500 g/ha [8] of 10% and a pest or weed control at 500 g/ha [9] of 100%.
O=C(O)CC[n+]1ccc(-c2nnc[nH]2)cn1 [Compound A37] gave a pest or weed control at 500 g/ha [1] of 10%, a pest or weed control at 500 g/ha [2] of 20% and a pest or weed control at 500 g/ha [3] of 50%. For the same molecule, the pest or weed control at 500 g/ha [4] was 10%, the pest or weed control at 500 g/ha [5] was 30% and the pest or weed control at 500 g/ha [6] was 10%. It also gave a pest or weed control at 500 g/ha [7] of 0%, a pest or weed control at 500 g/ha [8] of 10% and a pest or weed control at 500 g/ha [9] of 30%.

From patent publication US20210053957A1, “HERBICIDAL COMPOUNDS” (SYNGENTA PARTICIPATIONS AG, priority 2018, published 2021)
